Results published in PubChem BioAssay (NCI).
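All cell lines were grown in 96-well plates and treated with compound for 48 hours. GI50 = concentration required for 50% inhibition of growth. TGI is the concentration that stops growth completely.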

How the values were obtained:
Experiment in all cases: growth of human tumour cells (NCI), 48 h
OVCAR-4 ovarian = test system: OVCAR-4 ovarian
U251 CNS = test system: U251 CNS
LOX IMVI melanoma = test system: LOX IMVI melanoma
K-562 leukemia = test system: K-562 leukemia
MOLT-4 leukemia = test system: MOLT-4 leukemia
MDA-MB-231 breast = test system: MDA-MB-231 breast
SK-MEL-28 melanoma = test system: SK-MEL-28 melanoma
SNB-75 CNS = test system: SNB-75 CNS
OVCAR-5 ovarian = test system: OVCAR-5 ovarian
MDA-MB-435 = test system: MDA-MB-435
NCI-H23 lung = test system: NCI-H23 lung
HOP-62 NSCLC = test system: HOP-62 NSCLC
HS 578T breast = test system: HS 578T breast
SK-MEL-2 melanoma = test system: SK-MEL-2 melanoma
SK-MEL-5 melanoma = test system: SK-MEL-5 melanoma
786-0 renal = test system: 786-0 renal
UACC-257 melanoma = test system: UACC-257 melanoma
KM12 colon = test system: KM12 colon
RXF 393 renal = test system: RXF 393 renal
MALME-3M melanoma = test system: MALME-3M melanoma
SF-539 CNS = test system: SF-539 CNS
COLO 205 colon = test system: COLO 205 colon
HCC-2998 colon = test system: HCC-2998 colon
SW-620 colon = test system: SW-620 colon
CCRF-CEM leukemia = test system: CCRF-CEM leukemia
SF-295 CNS = test system: SF-295 CNS
SR leukemia = test system: SR leukemia
OVCAR-8 ovarian = test system: OVCAR-8 ovarian
CAKI-1 renal = test system: CAKI-1 renal
MCF7 breast = test system: MCF7 breast
MDA-MB-468 breast = test system: MDA-MB-468 breast
A498 renal = test system: A498 renal
T-47D breast = test system: T-47D breast
OVCAR-3 ovarian = test system: OVCAR-3 ovarian
NCI-H226 lung = test system: NCI-H226 lung
BT-549 breast = test system: BT-549 breast
PC-3 prostate = test system: PC-3 prostate
SNB-19 CNS = test system: SNB-19 CNS
HT29 colon = test system: HT29 colon
SK-OV-3 ovarian = test system: SK-OV-3 ovarian
UO-31 renal = test system: UO-31 renal
HCT-116 colon = test system: HCT-116 colon
M14 melanoma = test system: M14 melanoma
NCI-H460 lung = test system: NCI-H460 lung
HCT-15 colon = test system: HCT-15 colon
ACHN renal = test system: ACHN renal
NCI/ADR-RES ovarian = test system: NCI/ADR-RES ovarian
TK-10 renal = test system: TK-10 renal
DU-145 prostate = test system: DU-145 prostate
UACC-62 melanoma = test system: UACC-62 melanoma
NCI-H522 lung = test system: NCI-H522 lung
A549 NSCLC = test system: A549 NSCLC
SN12C renal = test system: SN12C renal
EKVX NSCLC = test system: EKVX NSCLC
IGROV1 ovarian = test system: IGROV1 ovarian
HL-60(TB) leukemia = test system: HL-60(TB) leukemia
SF-268 CNS = test system: SF-268 CNS
RPMI-8226 leukemia = test system: RPMI-8226 leukemia
HOP-92 NSCLC = test system: HOP-92 NSCLC

## c1ccc(C(=C(c2ccc(OCCN3CCCCC3)cc2)c2ccc(OCCN3CCCCC3)cc2)C2CCCC2)cc1
OVCAR-4 ovarian
  GI50: 5.7 µM
  TGI: > 18 µM
U251 CNS
  GI50: 3.56 µM
  TGI: 8.23 µM
LOX IMVI melanoma
  GI50: 2.94 µM
  TGI: 5.43 µM
K-562 leukemia
  GI50: 1.64 µM
  TGI: > 18 µM
MOLT-4 leukemia
  GI50: 2.59 µM
  TGI: 7.72 µM
MDA-MB-231 breast
  GI50: 2.94 µM
  TGI: 6.01 µM
SK-MEL-28 melanoma
  GI50: 3.03 µM
  TGI: 5.81 µM
SNB-75 CNS
  GI50: 1.97 µM
  TGI: 13.8 µM
OVCAR-5 ovarian
  GI50: 4.67 µM
  TGI: > 18 µM
MDA-MB-435
  GI50: 2.59 µM
  TGI: 5.37 µM
NCI-H23 lung
  GI50: 5.16 µM
  TGI: 17.9 µM
HOP-62 NSCLC
  GI50: 5.01 µM
  TGI: > 18 µM
HS 578T breast
  GI50: 3.76 µM
  TGI: 11.8 µM
SK-MEL-2 melanoma
  GI50: 3.78 µM
  TGI: 9.2 µM
SK-MEL-5 melanoma
  GI50: 2.73 µM
  TGI: 5.23 µM
786-0 renal
  GI50: 5.54 µM
  TGI: > 18 µM
UACC-257 melanoma
  GI50: 4.11 µM
  TGI: 12 µM
KM12 colon
  GI50: 3.45 µM
  TGI: 6.48 µM
RXF 393 renal
  GI50: 2.91 µM
  TGI: 7.11 µM
MALME-3M melanoma
  GI50: 2.69 µM
  TGI: 5.1 µM
SF-539 CNS
  GI50: 2.88 µM
  TGI: 5.4 µM
COLO 205 colon
  GI50: 3.24 µM
  TGI: 6.71 µM
HCC-2998 colon
  GI50: 2.83 µM
  TGI: 5.33 µM
SW-620 colon
  GI50: 2.76 µM
  TGI: 5.35 µM
CCRF-CEM leukemia
  GI50: 3 µM
  TGI: 6.55 µM
SF-295 CNS
  GI50: 5.14 µM
  TGI: > 18 µM
SR leukemia
  GI50: 2.99 µM
  TGI: 8.46 µM
OVCAR-8 ovarian
  GI50: 6.93 µM
  TGI: > 18 µM
CAKI-1 renal
  GI50: 7.87 µM
  TGI: > 18 µM
MCF7 breast
  GI50: 1.93 µM
  TGI: 4.52 µM
MDA-MB-468 breast
  GI50: 2.38 µM
  TGI: 5.19 µM
A498 renal
  GI50: > 18 µM
  TGI: > 18 µM
T-47D breast
  GI50: 3.98 µM
  TGI: 15.4 µM
OVCAR-3 ovarian
  GI50: 3.05 µM
  TGI: 5.85 µM
NCI-H226 lung
  GI50: 3.32 µM
  TGI: 13.3 µM
BT-549 breast
  GI50: 2.8 µM
  TGI: 5.38 µM
PC-3 prostate
  GI50: 3.58 µM
  TGI: 7.79 µM
SNB-19 CNS
  GI50: 4.39 µM
  TGI: 14.6 µM
HT29 colon
  GI50: 3.1 µM
  TGI: 6.24 µM
SK-OV-3 ovarian
  GI50: 4.27 µM
  TGI: 11.8 µM
UO-31 renal
  GI50: > 18 µM
  TGI: > 18 µM
HCT-116 colon
  GI50: 3.48 µM
  TGI: 6.82 µM
M14 melanoma
  GI50: 3.43 µM
  TGI: 8.04 µM
NCI-H460 lung
  GI50: 2.82 µM
  TGI: 5.41 µM
HCT-15 colon
  GI50: > 18 µM
  TGI: > 18 µM
ACHN renal
  GI50: > 18 µM
  TGI: > 18 µM
NCI/ADR-RES ovarian
  GI50: > 18 µM
  TGI: > 18 µM
TK-10 renal
  GI50: 8.11 µM
  TGI: > 18 µM
DU-145 prostate
  GI50: 4.25 µM
  TGI: 10.5 µM
UACC-62 melanoma
  GI50: 2.9 µM
  TGI: 5.35 µM
NCI-H522 lung
  GI50: 2.61 µM
  TGI: 5.9 µM
A549 NSCLC
  GI50: 3.29 µM
  TGI: 7.96 µM
SN12C renal
  GI50: 4.08 µM
  TGI: 11.8 µM
EKVX NSCLC
  GI50: 8.68 µM
  TGI: > 18 µM
IGROV1 ovarian
  GI50: 2.98 µM
  TGI: 5.65 µM
HL-60(TB) leukemia
  GI50: 1.68 µM
  TGI: 5.42 µM
SF-268 CNS
  GI50: 3.53 µM
  TGI: 9.09 µM
RPMI-8226 leukemia
  GI50: 3.44 µM
  TGI: 8.24 µM
HOP-92 NSCLC
  GI50: 2.57 µM
  TGI: 5.85 µM
